In PubChem BioAssay AID248 (DTP/NCI, 2004):
Toxic doses and inconclusive results are not listed. Rule as the data show it: active = T/C of 150% or more; inactive = T/C below 125%.

Tested on: L1210 leukemia ip in BDF1 mice, survival T/C
Experiment: NCI In Vivo Anticancer Drug Screen. Data for tumor model L1210 Leukemia (intraperitoneal) in B6D2F1 (BDF1) mice
Conditions: endpoint: mean survival time, higher = longer survival
How it was run: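 Read-out is survival time, reported as the treated-group measurement over the vehicle-control measurement.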

[1] = dose: 100.0 mg/kg/injection, schedule: Q04DX003 (ip), vehicle: Klucel (hydroxypropylcellulose) (HPC)
[2] = dose: 200.0 mg/kg/injection, schedule: Q01DX009 (ip), vehicle: Klucel (hydroxypropylcellulose) (HPC)
[3] = dose: 200.0 mg/kg/injection, schedule: Q04DX003 (ip), vehicle: Klucel (hydroxypropylcellulose) (HPC)
[4] = dose: 400.0 mg/kg/injection, schedule: Q04DX003 (ip), vehicle: Klucel (hydroxypropylcellulose) (HPC)

Measured: T/C

C(#CSCc1ccccc1)SCc1ccccc1
inactive: dose: 100.0 mg/kg/injection, schedule: Q01DX009 (ip), vehicle: Klucel (hydroxypropylcellulose) (HPC) 94 % of control | [1] 104 % of control | [2] 96 % of control | [3] 102 % of control | dose: 400.0 mg/kg/injection, schedule: Q01DX009 (ip), vehicle: Klucel (hydroxypropylcellulose) (HPC) 97 % of control | [4] 104 % of control

O=C(Nc1ccc(C2=NCCN2)cc1)c1cccc(C(=O)Nc2ccc(C3=NCCN3)cc2)c1Cl
inactive: dose: 4.5 mg/kg/injection, schedule: Q01DX Z (ip), vehicle: carboxymethylcellulose (CMC) 105 % of control | dose: 9.0 mg/kg/injection, schedule: Q01DX Z (ip), vehicle: carboxymethylcellulose (CMC) 117 % of control | dose: 62.0 mg/kg/injection, schedule: Q01DX Z (oral), vehicle: carboxymethylcellulose (CMC) 109 % of control | dose: 125.0 mg/kg/injection, schedule: Q01DX Z (oral), vehicle: carboxymethylcellulose (CMC) 118 % of control | dose: 250.0 mg/kg/injection, schedule: Q01DX Z (oral), vehicle: carboxymethylcellulose (CMC) 118 % of control | dose: 500.0 mg/kg/injection, schedule: Q01DX Z (oral), vehicle: carboxymethylcellulose (CMC) 98 % of control
active: dose: 18.0 mg/kg/injection, schedule: Q01DX Z (ip), vehicle: carboxymethylcellulose (CMC) 155 % of control | dose: 25.0 mg/kg/injection, schedule: Q01DX Z (ip), vehicle: carboxymethylcellulose (CMC) 211 % of control | dose: 37.0 mg/kg/injection, schedule: Q01DX Z (ip), vehicle: carboxymethylcellulose (CMC) 184 % of control

CCCCCCCCC(C(O)c1ccccc1)C(O)(C(F)(F)F)C(F)(F)F (centres undefined)
inactive: dose: 100.0 mg/kg/injection, schedule: Q01DX009 (ip), vehicle: saline with Tween-80 95 % of control | dose: 200.0 mg/kg/injection, schedule: Q01DX009 (ip), vehicle: saline with Tween-80 105 % of control | dose: 400.0 mg/kg/injection, schedule: Q01DX009 (ip), vehicle: saline with Tween-80 97 % of control

C=CCN(CC=C)c1nn[nH]n1
inactive: [1] 92 % of control | [3] 88 % of control | [4] 88 % of control

O=[N+]([O-])c1ccc(/C=C\c2ccc(Cl)cc2S(=O)(=O)F)c(Cl)c1
inactive: dose: 100.0 mg/kg/injection, schedule: Q01DX009 (ip), vehicle: saline sonified 97 % of control | dose: 100.0 mg/kg/injection, schedule: Q04DX003 (ip), vehicle: saline with Tween-80 102 % of control | dose: 200.0 mg/kg/injection, schedule: Q01DX009 (ip), vehicle: saline sonified 97 % of control | dose: 200.0 mg/kg/injection, schedule: Q04DX003 (ip), vehicle: saline with Tween-80 96 % of control | dose: 400.0 mg/kg/injection, schedule: Q01DX009 (ip), vehicle: saline sonified 96 % of control | dose: 400.0 mg/kg/injection, schedule: Q04DX003 (ip), vehicle: saline with Tween-80 100 % of control

Cn1ncc2c1C1(C)CCC2C1(C)C (centres undefined)
inactive: dose: 50.0 mg/kg/injection, schedule: Q01DX009 (ip), vehicle: Klucel (hydroxypropylcellulose) (HPC) 89 % of control | [1] 102 % of control | [2] 92 % of control | [3] 107 % of control

ON=C(CCl)CCl
inactive: dose: 6.25 mg/kg/injection, schedule: Q01DX009 (ip), vehicle: saline 89 % of control | dose: 12.5 mg/kg/injection, schedule: Q01DX001 (ip), vehicle: saline 113 % of control | dose: 25.0 mg/kg/injection, schedule: Q01DX001 (ip), vehicle: saline 98 % of control

CC(C)OC(=O)NCc1cccs1
inactive: dose: 100.0 mg/kg/injection, schedule: Q01DX009 (ip), vehicle: carboxymethylcellulose (CMC) 104 % of control | dose: 200.0 mg/kg/injection, schedule: Q01DX009 (ip), vehicle: carboxymethylcellulose (CMC) 101 % of control | dose: 400.0 mg/kg/injection, schedule: Q01DX009 (ip), vehicle: carboxymethylcellulose (CMC) 104 % of control

CCOC(=O)Cc1c(C(=O)OCC)nnn1-c1ccc([N+](=O)[O-])cc1
inactive: dose: 100.0 mg/kg/injection, schedule: Q04DX002 (ip), vehicle: Klucel (hydroxypropylcellulose) (HPC) 97 % of control | dose: 200.0 mg/kg/injection, schedule: Q04DX002 (ip), vehicle: Klucel (hydroxypropylcellulose) (HPC) 97 % of control | dose: 400.0 mg/kg/injection, schedule: Q04DX002 (ip), vehicle: Klucel (hydroxypropylcellulose) (HPC) 93 % of control

Cc1ccc(S(=O)(=O)N(C)c2ccc(N)cc2)cc1
inactive: dose: 100.0 mg/kg/injection, schedule: Q01DX001 (ip), vehicle: carboxymethylcellulose (CMC) 102 % of control | dose: 200.0 mg/kg/injection, schedule: Q01DX001 (ip), vehicle: carboxymethylcellulose (CMC) 96 % of control | dose: 400.0 mg/kg/injection, schedule: Q01DX001 (ip), vehicle: carboxymethylcellulose (CMC) 91 % of control

C=CCn1c2ccccc2c2cc3cnccc3c(C)c21
inactive: dose: 6.25 mg/kg/injection, schedule: Q04DX003 (ip), vehicle: Klucel (hydroxypropylcellulose) (HPC) 100 % of control | dose: 12.5 mg/kg/injection, schedule: Q04DX003 (ip), vehicle: Klucel (hydroxypropylcellulose) (HPC) 97 % of control | dose: 25.0 mg/kg/injection, schedule: Q04DX003 (ip), vehicle: Klucel (hydroxypropylcellulose) (HPC) 100 % of control | [1] 102 % of control | [3] 97 % of control | [4] 105 % of control
